Reference: patent US9993462B2, “Hydantoin derivative-containing pharmaceutical composition” (Chugai Seiyaku Kabushiki Kaisha, priority 2014, dated 2018)

Experiments:
human PTH1R = molecular target: T1, human PTH1R (Homo sapiens, UniProt Q03431); test: In vitro cAMP signal activity via the human PTH1R (HKRK-B7 cells); assay type: cell-based; settings: concentration at 20% cAMP signaling activity, human PTH(1-34) at 100 nM = 100%
T1 construct: expressed in transfected cells; host or cells: HKRK-B7 (LLC-PK1 porcine kidney cells stably expressing human PTH1R)
T1 sequence (Q03431 27-593): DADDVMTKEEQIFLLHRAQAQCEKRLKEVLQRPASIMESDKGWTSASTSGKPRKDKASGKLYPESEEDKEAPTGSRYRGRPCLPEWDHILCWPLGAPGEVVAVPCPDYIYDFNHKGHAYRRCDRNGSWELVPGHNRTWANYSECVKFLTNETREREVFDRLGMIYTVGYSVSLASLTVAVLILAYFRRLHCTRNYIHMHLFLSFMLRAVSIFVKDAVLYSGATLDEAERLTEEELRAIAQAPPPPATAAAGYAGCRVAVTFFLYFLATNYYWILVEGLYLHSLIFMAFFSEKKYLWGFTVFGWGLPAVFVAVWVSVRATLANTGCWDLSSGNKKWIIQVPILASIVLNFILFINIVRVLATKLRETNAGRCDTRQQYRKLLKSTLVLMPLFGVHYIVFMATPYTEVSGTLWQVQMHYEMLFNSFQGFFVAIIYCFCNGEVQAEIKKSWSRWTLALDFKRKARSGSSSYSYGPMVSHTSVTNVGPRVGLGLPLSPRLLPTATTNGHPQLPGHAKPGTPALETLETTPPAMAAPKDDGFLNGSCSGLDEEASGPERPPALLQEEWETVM
Procedure: Human PTH(1-34) and calcitonin were purchased from Peptide Institute, Inc. (Osaka, Japan), dissolved in 10 mM acetic acid to 1 mM and stored in a −80° C. freezer.
Cells were cultured in Dulbecco's modified Eagle's medium (DMEM) supplemented with 10% fetal bovine serum (Hyclone), 100 units/ml penicillin G and 100 μg/ml streptomycin sulfate (Invitrogen Corp) at 37° C. in a humidified atmosphere containing 5% CO2.
cAMP signal transduction analysis utilized LLC-PK1 cells not expressing the PTH1R, and HKRK-B7 cells, that is, LLC-PK1 cells overexpressing the human PTH1R at 9.5×10^5 receptors/cell (Takasu et al., J. Bone. Miner. Res. 14:11-20, 1999).
HKRK-B7 or LLC-PK1 cells were seeded into a 96-well plate at 1×10^5 cells/well and incubated overnight. On the following day, 50 μl of cAMP assay buffer (DMEM, 2 mM IBMX, 0.2 mg/ml bovine serum albumin, 35 mM Hepes-NaOH, pH 7.4) containing human PTH(1-34) or each compound was added and the plate was placed in a 37° C. incubator. The cells were incubated for 20 minutes. After removing the medium, the cells were washed with 100 μl of cAMP assay buffer once. The plate was placed on dry ice powder to freeze the cells and then removed from the dry ice. The cells were lysed with 40 μl of 50 mM HCl and frozen again on dry ice. The amount of intracellular cAMP produced was measured using a commercially available cAMP EIA kit (Biotrack cAMP EIA system, GE health care).
Analyses were performed using a variable gradient S-shaped dose-response curve equation.

rat PTH1R = molecular target: T2, rat PTH1R (Rattus norvegicus, UniProt P25961); test: In vitro cAMP signaling activity via the rat PTH1R (LLC-PK46_RATO_PTH1R cells); assay type: cell-based; settings: LLC-PK46_RATO_PTH1R cells overexpressing rat PTH1R
T2 construct: expressed in transfected cells
T2 sequence (P25961 27-591): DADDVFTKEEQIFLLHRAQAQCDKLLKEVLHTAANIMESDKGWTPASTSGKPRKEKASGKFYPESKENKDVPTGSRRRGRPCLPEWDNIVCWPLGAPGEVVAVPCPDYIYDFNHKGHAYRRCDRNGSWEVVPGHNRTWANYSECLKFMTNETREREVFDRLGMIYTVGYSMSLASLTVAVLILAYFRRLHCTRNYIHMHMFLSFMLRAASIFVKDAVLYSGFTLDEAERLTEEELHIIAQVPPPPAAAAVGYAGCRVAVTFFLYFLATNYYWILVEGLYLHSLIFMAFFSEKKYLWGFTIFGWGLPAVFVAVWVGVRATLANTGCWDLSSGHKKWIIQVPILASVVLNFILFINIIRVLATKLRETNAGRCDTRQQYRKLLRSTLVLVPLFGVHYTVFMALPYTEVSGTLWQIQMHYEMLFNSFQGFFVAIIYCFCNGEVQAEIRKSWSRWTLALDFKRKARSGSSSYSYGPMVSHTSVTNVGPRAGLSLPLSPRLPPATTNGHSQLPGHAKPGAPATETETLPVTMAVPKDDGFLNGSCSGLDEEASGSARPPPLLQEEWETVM
Text: Instead of HKRK-B7 cells, LLC-PK46_RATO_PTH1R cells overexpressing rat PTH1R, which were established at Chugai Pharmaceutical, were used to take measurements in a similar manner to Reference Test Example 1.

rat hepatocyte = test: Metabolic stability using rat hepatocyte; assay type: in vitro ADME
Procedure: Liver cells were prepared from the liver of rats (SD, female) by a collagenase perfusion method. A compound of the Reference Examples or a Comparative Example was added, and this was incubated at 37° C. for a specified amount of time, followed by addition of a reaction-stopping solution. The concentration of the parent compound at each reaction time was measured using LC/MS/MS, and inherent clearance (μL/10^6 cells/min) was calculated from the slope of the reaction time versus residual rate.
• Cell concentration: 1×10^6 cells/mL • Compound concentration: 1 μM • Medium: Williams' medium E • Reaction time: 0, 15, 30, 60, 120, and 240 minutes • Reaction-stopping solution: acetonitrile/2-propanol (4/6, v/v)

TPTX rat = test: Calcemic action in the TPTX rat model; assay type: in vivo; settings: TPTX rats, 30 mg/kg oral; for change of serum Ca concentration from the Pre-value (in words): up to 24 hours after administration
Procedure: Four-week old female Crl:CD(SD) rats were obtained from Charles River Japan (Atsugi Breeding Center), and were acclimated to standard laboratory conditions of 20-26° C. and 35-75% humidity for one week. The rats were given tap water and were fed ad libitum with standard rodent chow (CE-2) (CLEA Japan, Inc.) containing 1.1% calcium, 1.0% phosphoric acid, and 250 IU/100 g of vitamin D3.
TPTX was performed on five-week old rats. Some of the individuals were subjected to sham operation (Sham). Individuals whose serum Ca concentration was less than 8 mg/dL on four days after the operation were selected for use as TPTX rats. On five days after the operation, the rats were assigned to eight TPTX groups and one Sham group (n=5, each group) based on their body weight and serum Ca concentration measured on four days after the operation. The solvent alone was orally administered to the Sham group and the TPTX-Vehicle group at a volume of 10 mL/kg. Each test article was orally administered individually to each TPTX test article group by dissolving it in a solvent at a dose of 30 mg/10 mL/kg. The solvent composition was 10% dimethylsulfoxide (Wako Pure Chemical Industries, Ltd.), 10% Cremophor EL (Sigma-Aldrich Japan LLC), 20% hydroxypropyl-β-cyclodextrin (Nihon Shokuhin Kako Co., Ltd.), glycine (Wako Pure Chemical Industries, Ltd.); and the pH was adjusted to 10. Immediately before administration of each sample, Pre-blood collection was performed, and blood collection was carried out at 2, 6, 10, and 24 hours after administration to measure the serum Ca concentration. Each blood collection was carried out from the jugular vein under isoflurane inhalation anesthesia.
Serum Ca measurement: Serum obtained by centrifugation from the collected blood was measured by using an automatic analyzer TBA-120FR (Toshiba Medical Systems Corporation).
For statistical analysis of the animal studies, data are shown as mean±standard error (SE). Statistical analysis were performed by unpaired test of the SAS Preclinical Package (Ver. 5.00.010720, SAS Institute Japan, Tokyo, Japan).

[1] = system: human articular chondrocytes; test: Proteoglycan synthesis by human articular chondrocytes (35S-sulfate incorporation); assay type: cell-based; settings: TGF-β1 10 ng/mL, cultured for 13 days
Procedure: After purchase of cryopreserved human articular chondrocytes (Lot 2867, Cell Applications Inc.), the cells were thawed in a 37° C. water bath, 15 mL of Basal Medium supplemented with 10% Growth Supplement (Growth Medium, Cell Applications Inc.) was placed in a T75 culture flask (CORNING, Corning Japan K. K.) to culture the cells, and exchanged the next day with 15 mL of Growth Medium; and the cells were cultured for three days. Growth Medium was then removed, and HBSS (Cell Applications Inc.) was used to wash the chondrocyte layer. With addition of 1 mL of trypsin/EDTA solution (Cell Applications Inc.), this was left to stand at room temperature for approximately five minutes, and chondrocytes were detached from the flask. With 10 mL of Neutralization solution (Cell Applications Inc.) added, Bulker-Turk hemocytometer was used to determine the cell count, and the cells were then transferred to a 15-mL test tube for centrifugation (1,200 rpm for five minutes, Tomy Seiko Co., Ltd.) to produce a chondrocyte pellet. The supernatant was discarded, and the cells were placed in a 1.2% sodium alginate solution (25 mmol/L HEPES/150 mmol/L sodium chloride solution, pH7.0) at 2×10^6 cells/mL. This was drawn into a 1-mL syringe (Terumo Corporation) equipped with a 22G injection needle, five drops were added to each well of a 24-well plate (Corning Japan K.K.) containing 2 mL of 102 mmol/L aqueous CaCl2 solution, and this was left to stand for five minutes to form beads. Subsequently, this was washed three times with a 150 mmol/L sodium chloride solution and incubated for one day in Growth Medium, and the medium was exchanged with Basal Medium supplemented with 1% Growth supplement (Cell Applications Inc.). In this procedure, the following factors were added to the medium, and the cells were cultured for 13 days with three times of medium exchange performed per week.
On day 12 of culturing, ^35S-labeled sulfuric acid (PerkinElmer Japan Co., Ltd.) was added at 370 kBq/well, and the medium was collected 24 hours later into a test tube and stored at 4° C. To the alginate gel, a 55 mmol/L sodium citrate solution (Nacalai Tesque, Inc.; 1 mL/well) was added, and this was incubated at 37° C. for ten minutes for solation. This was collected into a microtube (Eppendorf AG) and then centrifuged (1,200 rpm, five minutes) to produce a chondrocyte pellet. […] The glass filter was transferred to a liquid scintillation counter vial, 5 mL of scintillator (Hionic-Fluor, PerkinElmer Japan Co., Ltd.) was added and radioactivity was measured on a liquid scintillation counter (TRI-CARB, PerkinElmer Japan Co., Ltd.).
The remaining 0.1 mL of the digested solution was used for DNA quantification. […]

EC20 (human PTH1R) [µM] | EC20 (rat PTH1R) [µM] | rat hepatocyte metabolic stability compared to Comparative Examples 1, 2, 3, 5, and 6 (in words) (rat hepatocyte) | Compound | achievement of the therapeutic target range of serum Ca concentration of 7.6 to 8.8 mg/dL (TPTX rat) | change of serum Ca concentration from the Pre-value (in words) (TPTX rat) | radioactivity (proteoglycan synthesis, cpm/μg DNA) relative to the vehicle control [1] [fold]
5.0 | 3.0 | increased | Cc1cc(N2C(=O)NC(=O)C23COC3)cc(C)c1CCS(=O)(=O)N1CCC2(CC1)N=C(c1ccc(OC(F)(F)F)cc1)NC2=O [Compound 10, 5-(3,5-dimethyl-4-(2-((4-oxo-2-(4-(trifluoromethoxy)phenyl)-1,3,8-triazaspiro[4.5]deca-1-en-8-yl)sulfonyl)ethyl)phenyl)-2-oxa-5,7-diazaspiro[3.4]octane-6,8-dione] | – | – | –
– | 0.4 | increased | Cc1cc(N2C(=O)NC(=O)C23CCCC3)cc(C)c1CCS(=O)(=O)N1CCC2(CC1)N=C(c1ccc(OC(F)(F)F)cc1)NC2=O [Compound 8, 1-(3,5-dimethyl-4-(2-((4-oxo-2-(4-(trifluoromethoxy)phenyl)-1,3,8-triazaspiro[4.5]deca-1-en-8-yl)sulfonyl)ethyl)phenyl)-1,3-diazaspiro[4.4]nonane-2,4-dione] | achieved the therapeutic target range | large positive changes from the Pre-value | –
– | – | – | TGF-β1: Positive control for proteoglycan synthesis, 10 ng/mL [reference compound] | – | – | 10
1.5 | 0.8 | – | Cc1cc(N2C(=O)CNC2=O)ccc1CCS(=O)(=O)N1CCC2(CC1)N=C(c1cccc(OC(F)(F)F)c1)NC2=O [Comparative Example 1, reference compound] | could not be achieved | smaller positive changes from the Pre-value | –
1.5 | 0.8 | increased | Cc1cc(N2C(=O)NC(=O)C23CC3)cc(C)c1CCS(=O)(=O)N1CCC2(CC1)N=C(c1ccc(OC(F)(F)F)cc1)NC2=O [Compound 11, 4-(3,5-dimethyl-4-(2-((4-oxo-2-(4-(trifluoromethoxy)phenyl)-1,3,8-triazaspiro[4.5]deca-1-en-8-yl)sulfonyl)ethyl)phenyl)-4,6-diazaspiro[2.4]heptane-5,7-dione] | – | – | –
